According to US20070286886A1, “Materials And Methods For Inducing Apoptosis In Adipocytes” (University of Tennessee Research Foundation, priority 2004, published 2007):

Columns and labels:
caspase-1 = assay: Caspase-1 mRNA expression by real-time PCR in 3T3-L1 and UCP2-transfected 3T3-L1 adipocytes; type: cell-based; settings: DNP 25 μM and 50 μM, 24 h; P<0.05
Procedure: (§1) 3T3-L1 preadipocytes were incubated at a density of 8000 cells/cm2 (10 cm2 dish) and grown in Dulbecco's modified Eagle's medium (DMEM) containing 10% FBS and antibiotics (adipocyte medium) at 37° C. in 5% CO2 in air. Confluent preadipocytes were induced to differentiate with a standard differentiation medium consisting of DMEM-F10 (1:1, vol/vol) medium supplemented with 1% FBS, 1 μM dexamethasone, IBMX (0.5 mM), and antibiotics (1% penicillin-streptomycin). Preadipocytes were maintained in this differentiation medium for 3 days and subsequently cultured in adipocyte medium. Cultures were re-fed every 2-3 days to allow 90% cells to reach full differentiation before they were chemically treated. Chemicals were freshly diluted in adipocyte medium before treatment. Cells were washed with fresh adipocyte medium, re-fed with medium containing the different treatments, and incubated at 37° C. in 5% CO2 in air before analysis. Cell viability was measured via trypan blue exclusion.
(§2) UCP2 full-length cDNAs were amplified by […] using mRNAs isolated from mouse white adipose tissues. The PCR primers for this amplification are shown as follows: UCP2 forward, 5′-[…]-3′, reverse, 5′-[…]-3′. The PCR products were then subcloned into pcDNA4/His expression vectors. The linearized constructs were transfected into 3T3-L1 preadipocytes using lipofectamine plus standard protocol (Invitrogen, Carlsbad, Calif.). After 48 h of transfection, cells were split and cultured in selective medium containing 400 ug/ml zeocin for the selection of resistant colonies. […]
(§3) Adipocyte caspase-1, caspase-3, Bcl-2, and Bax mRNA were quantitatively measured using a Smart Cycler Real Time PCR System (Cepheid, Sunnyvale, Calif.) with a TaqMan 1000 Core Reagent Kit (Applied Biosystems, Branchburg, N.J.). […] Reactions of quantitative RT-PCR for standards and unknown samples were Cepheid, Sunnyvale, Calif.) and TaqMan Real Time PCR Core Kit. The mRNA quantitation for each sample was further normalized using the corresponding 18 s quantitation, with a forward primer, 5′-[…]-3′, and a reverse primer, 5′-[…]-3′.

caspase-3 = assay: Caspase-3 mRNA expression by real-time PCR in 3T3-L1 and UCP2-transfected 3T3-L1 adipocytes; type: cell-based
Procedure: as §1
UCP2 full-length cDNAs were amplified by […] using mRNAs isolated from mouse white adipose tissues. The PCR primers for this amplification are shown as follows: UCP2 forward, 5′-[…]-3′, reverse, 5′-[…]-3′. The PCR products were then subcloned into pcDNA4/His expression vectors. The linearized constructs were transfected into 3T3-L1 preadipocytes using lipofectamine plus standard protocol (Invitrogen, Carlsbad, Calif.). After 48 h of transfection, cells were split and cultured in selective medium containing 400 ug/ml zeocin for the selection of resistant colonies. Cells were fed with selective medium every 3 days until resistant colonies could be identified. These resistant foci were picked, expanded, tested for expression, and frozen for future experiments.
A total cellular RNA isolation kit (Ambion, Austin, Tex.) was used to extract total RNA from 3T3-L1 cells according to the manufacturer's instructions.
Adipocyte caspase-1, caspase-3, Bcl-2, and Bax mRNA were quantitatively measured using a Smart Cycler Real Time PCR System (Cepheid, Sunnyvale, Calif.) with a TaqMan 1000 Core Reagent Kit (Applied Biosystems, Branchburg, N.J.). The primers and probe sets were ordered from Applied Biosystems TaqMan Assays-on-Demand Gene Expression primers and probe set collection according to the manufacturer's instructions. Pooled 3T3-L1 adipocyte total RNA was serial-diluted in the range of 1.5625-25 ng and used to establish a standard curve; total RNAs for unknown samples were also diluted in this range. Reactions of quantitative RT-PCR for standards and unknown samples were Cepheid, Sunnyvale, Calif.) and TaqMan Real Time PCR Core Kit. The mRNA quantitation for each sample was further normalized using the corresponding 18 s quantitation, with a forward primer, 5′-[…]-3′, and a reverse primer, 5′-[…]-3′.
3T3-L1 preadipocytes were incubated at a density of 8000 cells/cm2 (10 cm2 dish) and grown in Dulbecco's modified Eagle's medium (DMEM) containing 10% FBS and antibiotics at 37° C. in 5% CO2. Confluent preadipocytes were induced to differentiate with a standard differentiation medium consisting of DMEM-F 10 (1:1, vol/vol) medium supplemented with 1% FBS, 1 μM dexamethasone, IBMX (0.5 mM) and antibiotics (1% penicillin/streptomycin). Preadipocytes were maintained in this differentiation medium for 3 days and subsequently cultured in adipocyte medium. Cultures were re-fed every 2-3 days to allow 90% cells to reach fully differentiation before conducting chemical treatment. Chemicals were freshly diluted in adipocyte medium before treatment. Cells were washed with fresh adipocyte medium, re-fed with medium containing the different treatments, and incubated at 37° C. in 5% CO2 in air before analysis. Cell viability was measured via trypan blue exclusion.
Adipocytes were incubated with adipocyte medium for 24 h with or without GDP, BK 8644, GDP plus BK8644 before total RNA extraction. […]

Bcl-2/Bax = Bcl-2/Bax expression ratio by real-time PCR in 3T3-L1 and UCP2-transfected 3T3-L1 adipocytes; type: cell-based; settings: DNP 25 μM and 50 μM, 24 h; P<0.02
Procedure: as §1, §2, §3

[1] = tested on: 3T3-L1 and UCP2-transfected 3T3-L1 cells; assay: Mitochondrial membrane potential (JC-1 fluorometry) in adipocytes; type: cell-based; settings: for increase in mitochondrial potential: p<0.05
Procedure: (§4) Adipocytes were incubated with adipocyte medium for 4 h with or without 1α,25-(OH)2-D3. Mitochondrial membrane potential was analyzed fluorometrically with a lipophilic cationic dye JC-1 (5,5′,6,6′-tetrachloro-1,1′,3,3′-tetraethylbenzimidazol carbocyanine iodide) using a mitochondrial potential detection kit (Biocarta, San Diego, Calif.). Mitochondrial potential was determined as the ratio of red fluorescence (excitation 550 nm, emission 600 nm) and green fluorescence (excitation 485 nm, emission 535 nm) using a fluorescence microplate reader.
as §4, with “GDP, BK 8644, GDP plus BK8644.” for “1α,25-(OH)2-D3.”

[2] = tested on: 3T3-L1 and UCP2-transfected 3T3-L1 adipocytes; assay: Cytosolic/intracellular calcium (fura-2 dual-wavelength fluorescence imaging) in adipocytes; type: cell-based; settings: 3T3-L1 cells; data not shown
UCP2 = UCP2 expression in 3T3-L1 cells (western blot, UCP2/actin); type: cell-based, mouse; settings: siRNA transfected 3T3-L1 cells, 48 hrs after transfection
Procedure: Duplex siRNA corresponding to UCP2 gene was designed and chemically synthesized by Invitrogen. The following gene-specific sequences were used successfully: Si-UCP2 sense 5′-GCCUCUACGACUCUGUCAA-3′ and antisense […]. Transfection of siRNA was performed with Oligofectamine™ reagent (Invitrogen Life Technologies, CA) in 6-well plates. Briefly, Oligofectamine diluted in DMEM was applied to the duplex siRNA mixture, and the formulation was continued for 20 min to allow the Oligofectamine-oligonucleotide complex to form. Per well, 800 μl of plating medium and 10 ul of 20 μM duplex siRNA duplex siRNA formulated with 4 μl of Oligofectamine were applied in a final volume of 1 ml. Cells were then incubated at […] in a CO2 incubator for 4 hrs. […]
Adipocytes were harvested and sonicated in a homogenization buffer containing 50 mM Tris-HCl (PH 7.4), 250 mM sucrose, 1 mM EDTA, 1 mM dithiothreitol, 1% (v/v) Triton X, 10% protease cocktail (Sigma). […] Homogenate intrafranatant protein from equal numbers of cells (determined via protein quantitation using Bradford method as described previously) was boiled in Laemmli sample buffer and subject to 10% SDS-polyacrylamide gel electrophoresis (PAGE). […] Visualization was detected with chemiluminescence reagent, using the Western Blotting Luminal Reagent (Santa Cruz Biotechnology, CA).

[3] = siRNA transfected 3T3-L1 cells (UCP2 ko) vs control

O=[N+]([O-])c1ccc(O)c([N+](=O)[O-])c1 [DNP, 2,4-dinitrophenol]
basal caspase-1 expression level compared with control cells (caspase-1): significantly higher | basal caspase-3 expression level compared with control cells (caspase-3; DNP 25 μM and 50 μM, 24 h, P<0.05): significantly higher | Bcl-2/Bax ratio versus nontransfected 3T3-L1 cells (Bcl-2/Bax): significantly lower

Nc1nc2c(ncn2[C@@H]2O[C@H](COP(=O)(O)OP(=O)(O)O)[C@@H](O)[C@H]2O)c(=O)[nH]1 [GDP, guanosine 5′-diphosphate]
suppression of caspase-3 expression in BK8644 pretreated cells (caspase-3; 3T3-L1 cells pretreated with BK8644, p<0.05): 45% | increase in mitochondrial potential ([1]; 100 μM, 3T3-L1 cells, 4 h): 27% | increase in mitochondrial potential ([1]; 500 μM, 3T3-L1 cells, 4 h): 48% | mitochondrial potential ([1]; 3T3-L1 cells, GDP): increased | [Ca2+]i level [2]: decreased

siRNA: duplex siRNA corresponding to UCP2 gene, sense 5′-GCCUCUACGACUCUGUCAA-3′ (antisense UUGACAGAGUCGAGGC; chemistry not given here)
decrease in UCP2 expression (UCP2): 70% | decrease in caspase-3 expression (caspase-3; [3]): 58% | increase in mitochondrial potential [1, 3]: 52%
